Counter-ions that a name gives are not always drawn.
Legend:
Assay type in all cases: cell-based
[1] = system: human acute myeloid leukemia cell line MV-4-11; assay: Cytostatic activity on leukemia cell line MV-4-11 (WST-1); conditions: Homo sapiens, MV4-11; 10 μmol/L, 72 hours, MV-4-11 cells; read-out: cytostatic rate MV-4-11 (%) (10 μmol/L)
Method: (§1) The cytostatic rates of a test compound on human acute myeloid leukemia cell lines MV-4-11 and ML-1, and human chronic myeloid leukemia cell line K562 were determined in the following manner.
(§2) Each cell was cultured using Roswell Park Memorial Institute's Medium (RPMI) 1640 (Gibco, Catalog No. 11875-093) containing 10% fetal bovine serum (Gibco, Catalog No. 10437-028) and 1% penicillin/streptomycin (1:1) (Gibco, Catalog No. 15140-122). Each 80 μL of the MV-4-11 cell having a concentration of 7.5×10^4 cells/mL (or the ML-1 cell or K562 cell having a concentration of 2.5×10^4 cells/mL) was inoculated to wells of a TC MICROWELL 96U plate (Nalge Nunc International, Catalog No. 163320) and was cultured in a 5% carbon dioxide gas incubator at 37° C. for 4 hours. As a blank, only RPMI medium (80 μL) was added to a well. Each 20 μL of a solution of the test compound in dimethyl sulfoxide (DMSO) which was prepared to make the final concentration to 10 μmol/L, was added to the MV-4-11 cell, ML-1 cell and K562 cell, respectively. Each 20 μL of DMSO was added to the control well and the blank well to […]. After adding the test compound, the cells were incubated in a 5% carbon dioxide gas incubator at 37° C. for 72 hours. After adding 20 μL of WST-1 reagent {4-[3-(4-iodophenyl)-2-(4-nitrophenyl)-2H-5-tetrazolio]-1,3-benzene disulfonate sodium salt} (Roche Diagnostics K.K., Catalog No. 1644807) diluted to 50% with RPMI medium, the cells were further incubated at 37° C. for 2 hours. Then, the absorbances at 450 nm (reference wavelength: 690 nm) were determined with a microplate spectrophotometer SPECTRA max 340PC (Molecular Devices Corporation). The relative growth (%) of a well to which the test compound had been added was determined while setting the absorbance of a well to which not the test compound but DMSO alone had been added (control) at 100% and that of a well containing RPMI medium alone at 0%. The cytostatic rate (%) of the test compound was determined by subtracting the calculated relative growth from 100.

[2] = system: human acute myeloid leukemia cell line ML-1; assay: Cytostatic activity on leukemia cell line ML-1 (WST-1); conditions: Homo sapiens, ML1; 10 μmol/L, 72 hours, ML-1 cells; read-out: cytostatic rate ML-1 (%) (10 μmol/L)
Method: as §1, §2

[3] = system: human chronic myeloid leukemia cell line K562; assay: Cytostatic activity on leukemia cell line K562 (WST-1); conditions: Homo sapiens; 10 μmol/L, 72 hours, K562 cells; read-out: cytostatic rate K562 (%) (10 μmol/L)
Method: as §1, §2

[4] = system: human colon cancer cell line Colo205; assay: Cytostatic activity on solid carcinoma cell line Colo205 (WST-1); conditions: Homo sapiens, COLO 205; 10 μmol/L, 72 hours, Colo205 cells; read-out: cytostatic rate Colo205 (%) (10 μmol/L)
Method: as §2
The cytostatic rate of a test compound on the human colon cancer cell line Colo205 was determined in the following manner.
The cell was cultured using Roswell Park Memorial Institute's Medium (RPMI) 1640 (Gibco, Catalog No. 11875-093) containing 10% fetal bovine serum (Gibco, Catalog No. 10437-028) and 1% penicillin/streptomycin (1:1) (Gibco, Catalog No. 15140-122). Each 80 μL of the Colo205 having a concentration of 1.25×10^4 cells/mL was inoculated to wells of a TC MICROWELL 96F plate (Nalge Nunc International, Catalog No. 167008) and was cultured in a 5% carbon dioxide gas incubator at 37° C. for 24 hours. As a blank, only RPMI (80 μL) was added to a well. Each 20 μL of a solution of the test compound in DMSO which was prepared to make the final concentration to 10 μmol/L, was added to the Colo205 cell. Each 20 μL of DMSO was added to the control well and the blank well to […]. After adding the test compound, the cell was incubated in a 5% carbon dioxide gas incubator at 37° C. for 72 hours. The cytostatic rate (%) was then determined in the same way as the leukemia cell lines.

NC(=O)C1CCN(C(=O)c2ccc(/C=C/c3n[nH]c4ccccc34)cc2)CC1 [Compound 86, (E)-1-{4-[2-(1H-indazol-3-yl)vinyl]benzoyl}piperidine-4-carboxamide]
inhibition at 10 µM [1]: 98% | inhibition at 10 µM [2]: 87% | inhibition at 10 µM [3]: 88% | inhibition at 10 µM [4]: 89%

CC(=O)N(C)CC(=O)N1CCN(C(=O)c2ccc(/C=C/c3n[nH]c4ccccc34)cc2)CC1 [Compound 138, (E)-4-(N-acetyl-N-methylaminoacetyl)-1-{4-[2-(1H-indazol-3-yl)vinyl]benzoyl}piperazine]
inhibition at 10 µM [1]: 99% | inhibition at 10 µM [2]: 88% | inhibition at 10 µM [3]: 94% | inhibition at 10 µM [4]: 91%

O=C(c1ccc(/C=C/c2n[nH]c3ccccc23)cc1)N1CCN(C(=O)C2CC2)CC1 [Compound 55, (E)-4-cyclopropanecarbonyl-1-{4-[2-(1H-indazol-3-yl)vinyl]benzoyl}piperazine]
inhibition at 10 µM [1]: 97% | inhibition at 10 µM [2]: 83% | inhibition at 10 µM [3]: 81% | inhibition at 10 µM [4]: 89%

O=C(NCCN1CCOCC1)c1ccc(/C=C/c2n[nH]c3ccccc23)cc1 [Compound 10, (E)-N-(2-morpholinoethyl)-4-[2-(1H-indazol-3-yl)vinyl]benzamide]
inhibition at 10 µM [1]: 91% | inhibition at 10 µM [2]: 83% | inhibition at 10 µM [3]: 99% | inhibition at 10 µM [4]: 41%

O=C(c1ccc(/C=C/c2n[nH]c3ccccc23)cc1)N1CCNCC1 [Compound 18, (E)-1-{4-[2-(1H-indazol-3-yl)vinyl]benzoyl}piperazine]
inhibition at 10 µM [1]: 98% | inhibition at 10 µM [2]: 76% | inhibition at 10 µM [3]: 91% | inhibition at 10 µM [4]: 85%

O=C(c1ccc(/C=C/c2n[nH]c3ccccc23)cc1)N1CCN(C(=O)[C@@H]2CCCN2)CC1 [Compound 140, (S)-(E)-4-[(pyrrolidin-2-yl)carbonyl]-1-{4-[2-(1H-indazol-3-yl)vinyl]benzoyl}piperazine]
inhibition at 10 µM [1]: 99% | inhibition at 10 µM [2]: 82% | inhibition at 10 µM [3]: 95% | inhibition at 10 µM [4]: 85%

Cc1cc(/C=C/c2n[nH]c3ccccc23)ccc1C(=O)N1CCNCC1 [Compound 95, (E)-1-{4-[2-(1H-indazol-3-yl)vinyl]-2-methylbenzoyl}piperazine dihydrochloride]
inhibition at 10 µM [1]: 96% | inhibition at 10 µM [2]: 70% | inhibition at 10 µM [3]: 93% | inhibition at 10 µM [4]: 86%

O=C(c1ccc(/C=C/c2n[nH]c3ccccc23)cc1)N1CCN(O)CC1 [Compound 147, (E)-4-Hydroxy-1-{4-[2-(1H-indazol-3-yl)vinyl]benzoyl}piperazine]
inhibition at 10 µM [1]: 99% | inhibition at 10 µM [2]: 89% | inhibition at 10 µM [3]: 77% | inhibition at 10 µM [4]: 83%

C[C@H]1CN(C(=O)c2ccc(/C=C/c3n[nH]c4ccccc34)cc2)CCN1 [Compound 101, (S)-(E)-1-{4-[2-(1H-indazol-3-yl)vinyl]benzoyl}-3-methylpiperazine dihydrochloride]
inhibition at 10 µM [1]: 99% | inhibition at 10 µM [2]: 77% | inhibition at 10 µM [3]: 92% | inhibition at 10 µM [4]: 87%

O=C1CN(C(=O)c2ccc(/C=C/c3n[nH]c4ccccc34)cc2)CCN1 [Compound 89, (E)-4-{4-[2-(1H-indazol-3-yl)vinyl]benzoyl}piperazin-2-one]
inhibition at 10 µM [1]: 98% | inhibition at 10 µM [2]: 86% | inhibition at 10 µM [3]: 61% | inhibition at 10 µM [4]: 92%

CC(C)NC(=O)CN1CCN(C(=O)c2ccc(/C=C/c3n[nH]c4ccccc34)cc2)CC1 [Compound 135, (E)-1-{4-[2-(1H-indazol-3-yl)vinyl]benzoyl}-4-[2-oxo-2-(isopropylamino)ethyl]piperazine dihydrochloride]
inhibition at 10 µM [1]: 99% | inhibition at 10 µM [2]: 79% | inhibition at 10 µM [3]: 93% | inhibition at 10 µM [4]: 87%

CC1(C(=O)N2CCN(C(=O)c3ccc(/C=C/c4n[nH]c5ccccc45)cc3)CC2)CC1 [Compound 77, (E)-4-(1-methylcyclopropanecarbonyl)-1-{4-[2-(1H-indazol-3-yl)vinyl]benzoyl}piperazine]
inhibition at 10 µM [1]: 98% | inhibition at 10 µM [2]: 80% | inhibition at 10 µM [3]: 95% | inhibition at 10 µM [4]: 86%

CC(C)(O)C(=O)N1CCN(C(=O)c2ccc(/C=C/c3n[nH]c4ccccc34)cc2)CC1 [Compound 68, (E)-4-(2-methyl-2-hydroxypropionyl)-1-{4-[2-(1H-indazol-3-yl)vinyl]benzoyl}piperazine]
inhibition at 10 µM [1]: 97% | inhibition at 10 µM [2]: 79% | inhibition at 10 µM [3]: 91% | inhibition at 10 µM [4]: 90%

CCOCC(=O)N1CCN(C(=O)c2ccc(/C=C/c3n[nH]c4ccccc34)cc2)CC1 [Compound 128, (E)-4-ethoxyacetyl-1-{4-[2-(1H-indazol-3-yl)vinyl]benzoyl}piperazine]
inhibition at 10 µM [1]: 98% | inhibition at 10 µM [2]: 79% | inhibition at 10 µM [3]: 87% | inhibition at 10 µM [4]: 88%

O=C(c1ccc(/C=C/c2n[nH]c3ccccc23)cc1)N1CCC(C(=O)N2CCOCC2)CC1 [Compound 51, (E)-1-{4-[2-(1H-indazol-3-yl)vinyl]benzoyl}-4-(morpholinocarbonyl)piperidine]
inhibition at 10 µM [1]: 98% | inhibition at 10 µM [2]: 89% | inhibition at 10 µM [3]: 95% | inhibition at 10 µM [4]: 90%

CC(C)(C)CC(=O)N1CCN(C(=O)c2ccc(/C=C/c3n[nH]c4ccccc34)cc2)CC1 [Compound 78, (E)-4-(3,3-dimethylbutyryl)-1-{4-[2-(1H-indazol-3-yl)vinyl]benzoyl}piperazine]
inhibition at 10 µM [1]: 98% | inhibition at 10 µM [2]: 64% | inhibition at 10 µM [3]: 90% | inhibition at 10 µM [4]: 82%

CCN(CC)C(=O)c1ccc(/C=C/c2n[nH]c3ccccc23)cc1 [Compound 15, (E)-N,N-Diethyl-4-[2-(1H-indazol-3-yl)vinyl]benzamide hydrochloride]
inhibition at 10 µM [1]: 91% | inhibition at 10 µM [2]: 94% | inhibition at 10 µM [3]: 100% | inhibition at 10 µM [4]: 92%

O=C(NC1CCN(C(=O)c2ccc(/C=C/c3n[nH]c4ccccc34)cc2)CC1)N1CCOCC1 [Compound 99, (E)-1-{4-[2-(1H-indazol-3-yl)vinyl]benzoyl}-4-(morpholinocarbonylamino)piperidine]
inhibition at 10 µM [1]: 97% | inhibition at 10 µM [2]: 86% | inhibition at 10 µM [3]: 94% | inhibition at 10 µM [4]: 95%

O=C(c1ccccc1)N1CCN(C(=O)c2ccc(/C=C/c3n[nH]c4ccccc34)cc2)CC1 [Compound 46, (E)-1-{4-[2-(1H-indazol-3-yl)vinyl]benzoyl}-4-benzoylpiperazine]
inhibition at 10 µM [1]: 98% | inhibition at 10 µM [2]: 82% | inhibition at 10 µM [3]: 93% | inhibition at 10 µM [4]: 87%

O=C(c1ccncc1)N1CCN(C(=O)c2ccc(/C=C/c3n[nH]c4ccccc34)cc2)CC1 [Compound 44, (E)-1-{4-[2-(1H-indazol-3-yl)vinyl]benzoyl}-4-(isonicotinoyl)piperazine]
inhibition at 10 µM [1]: 98% | inhibition at 10 µM [2]: 85% | inhibition at 10 µM [3]: 92% | inhibition at 10 µM [4]: 91%

CC(C)(N)C(=O)N1CCN(C(=O)c2ccc(/C=C/c3n[nH]c4ccccc34)cc2)CC1 [Compound 131, (E)-4-(2-amino-2-methylpropionyl)-1-{4-[2-(1H-indazol-3-yl)vinyl]benzoyl}piperazine dihydrochloride]
inhibition at 10 µM [1]: 99% | inhibition at 10 µM [2]: 85% | inhibition at 10 µM [3]: 98% | inhibition at 10 µM [4]: 91%
